Test system: Plasmodium berghei
Experiment: Luciferase/luciferin-expressing antifolate-resistant parasites were used to infect a culture of HepG2 cells that were pre-incubated with compounds. Infected hepatocytes emit light due to the luciferase reaction. Assay results are presented as the percent inhibition of light emission compared to control. […]
Type: functional
Settings: sporozoite; for IC90: read-out: LUCIFERASE INFECTION ASSAY - IC90
[1] = read-out: LUCIFERASE INFECTION ASSAY - IC50

SMILES | IC90 [µM] | other results
Cc1nn(Cc2nnc(SCC(=O)c3ccc(Cl)cc3)n2C)c(C)c1[N+](=O)[O-] | > 7.84 | IC50 [1]: > 7.84 µM
CC1CCc2sc(-c3nnc(SCC(=O)Nc4sccc4C(N)=O)o3)cc2C1 (stereo not given) | 9.89 | IC50 (PBLUC_HILL_SLOPE 4.8, PBLUC_R_SQUARED 0.154, read-out: LUCIFERASE INFECTION ASSAY - IC50): 6.26 µM
CC(=O)Nc1ccc(-c2cnc3ccc(-c4ccc(S(C)(=O)=O)cc4)nn23)cc1 | 7.89 | IC50 (HEPG2TOX_HILL_SLOPE 6.82, HEPG2TOX_R_SQUARED 0.682, PBLUC_HILL_SLOPE 2.96, PBLUC_R_SQUARED 0.544, read-out: LUCIFERASE INFECTION ASSAY - IC50): 3.75 µM
CC(CO)NCCOCCOc1ccc(Cl)cc1Cc1ccccc1 (stereo not given) | > 10 | IC50 [1]: > 10 µM
CCCCCCn1c(SCc2cc(=O)oc3cc(C)ccc23)nnc1-c1c[nH]c2ccccc12 | > 10 | IC50 (PBLUC_HILL_SLOPE 85.8, PBLUC_R_SQUARED 0.0287, read-out: LUCIFERASE INFECTION ASSAY - IC50): 9.99 µM
FC1(F)Oc2ccc(Nc3cc(-c4cc(Cl)cc(Cl)c4)ncn3)cc2OC1(F)F | > 7.4 | IC50 (HEPG2TOX_HILL_SLOPE 15.2, HEPG2TOX_R_SQUARED 0.834, PBLUC_HILL_SLOPE 14.8, PBLUC_R_SQUARED 0.0861, read-out: LUCIFERASE INFECTION ASSAY - IC50): 6.88 µM
CN(c1ccccc1)c1nnc(C(O)c2ccc3ccccc3c2)s1 (stereo not given) | > 10 | IC50 (PBLUC_HILL_SLOPE 0.974, PBLUC_R_SQUARED 0.604, read-out: LUCIFERASE INFECTION ASSAY - IC50): 3.52 µM
Cc1nc2ccc(I)cn2c1/C=N/Nc1ccccn1 | > 10 | IC50 (PBLUC_HILL_SLOPE 2.99, PBLUC_R_SQUARED 0.247, read-out: LUCIFERASE INFECTION ASSAY - IC50): 6.77 µM
Cc1ccccc1N1C(=O)c2ccccc2C(Cc2ccc(C#N)cc2)(Cc2ccc(C#N)cc2)C1=O | > 10 | IC50 (FFLUC_HILL_SLOPE 16.6, FFLUC_R_SQUARED 0.0411, PBLUC_HILL_SLOPE 0.772, PBLUC_R_SQUARED 0.177, read-out: LUCIFERASE INFECTION ASSAY - IC50): > 10 µM
CC(C)(C)c1ccc(C(=O)Nc2ccc(N3CCCS3(=O)=O)cc2)cc1[N+](=O)[O-] | 5.03 | IC50 (HEPG2TOX_HILL_SLOPE 9.4, HEPG2TOX_R_SQUARED 0.847, PBLUC_HILL_SLOPE 1.92, PBLUC_R_SQUARED 0.511, read-out: LUCIFERASE INFECTION ASSAY - IC50): 1.6 µM
S=C(NCc1ccco1)Nc1ccc(Oc2ccc(Cl)cc2)cc1 | > 9.2 | IC50 [1]: > 9.2 µM
Oc1ccccc1Nc1nc(NCc2ccccc2)c2ccccc2n1 | > 8.71 | IC50 [1]: 2.58 µM
O=C(Nc1ccc(Cl)cc1)/C(=C/c1ccc([N+](=O)[O-])cc1)c1nc2ccccc2s1 | > 10 | IC50 (PBLUC_HILL_SLOPE 3.91, PBLUC_R_SQUARED 0.341, read-out: LUCIFERASE INFECTION ASSAY - IC50): 7.67 µM
Cc1ccc(NN2C(=O)C=C(c3ccccc3)C2=O)cc1 | > 11.9 | IC50 (HEPG2TOX_HILL_SLOPE 1.4, HEPG2TOX_R_SQUARED 0.882, PBLUC_HILL_SLOPE 17, PBLUC_R_SQUARED 0.623, read-out: LUCIFERASE INFECTION ASSAY - IC50): 11.2 µM
CCc1ccc(OCC(O)Cn2c(=O)c3ccccc3n3nc(C)cc23)cc1 (stereo not given) | 9.43 | IC50 (HEPG2TOX_HILL_SLOPE 9.12, HEPG2TOX_R_SQUARED 0.677, PBLUC_HILL_SLOPE 3.87, PBLUC_R_SQUARED 0.197, read-out: LUCIFERASE INFECTION ASSAY - IC50): 5.34 µM
c1ccc2cc(-c3cnc4sc(NCc5ccncc5)nn34)ccc2c1 | > 9.23 | IC50 [1]: > 9.23 µM
COc1ccc(S(=O)(=O)N(C)C)cc1NC(=O)CSc1cc(C)c2ccccc2n1 | > 10 | IC50 [1]: > 10 µM
OCc1ccc(-c2cnc3cnc(-c4ccc(CNc5ccccc5)cc4)cn23)cc1 | > 8.12 | IC50 [1]: 6.07 µM
O=C(Cc1ccccc1)NCC(=O)N1CCc2nc(NCc3cccc(Oc4ccccc4)c3)ncc2C1 | > 6.5 | IC50 [1]: > 6.5 µM
CC(=O)c1cccc(-c2cnc3ccc(-c4cccc(N)c4)nn23)c1 | 3.85 | IC50 (HEPG2TOX_HILL_SLOPE 0.765, HEPG2TOX_R_SQUARED 0.894, PBLUC_HILL_SLOPE 1.06, PBLUC_R_SQUARED 0.553, read-out: LUCIFERASE INFECTION ASSAY - IC50): 0.481 µM

SMILES | IC90 [µM] | other results
CCCNC(=O)c1c(NC(=O)c2ccc(F)cc2)nc2ccccn12 | 5.82 | IC50 (HEPG2TOX_HILL_SLOPE 16.9, HEPG2TOX_R_SQUARED 0.391, PBLUC_HILL_SLOPE 4.88, PBLUC_R_SQUARED 0.525, read-out: LUCIFERASE INFECTION ASSAY - IC50): 3.71 µM
CC(=O)OC1CCC2(C)C(CCC3C4CCC(C(C)C(=O)OCC(=O)c5ccccc5)C4(C)CC(=O)C32)C1 (stereo not given) | 0.271 | IC50 (HEPG2TOX_HILL_SLOPE 12.9, HEPG2TOX_R_SQUARED 0.919, PBLUC_HILL_SLOPE 10.6, PBLUC_R_SQUARED 0.537, read-out: LUCIFERASE INFECTION ASSAY - IC50): 0.22 µM
N#CC(C(=O)COC(=O)c1cc(Br)ccc1O)=C1Nc2ccccc2N1 | > 10 | IC50 (PBLUC_HILL_SLOPE 2.06, PBLUC_R_SQUARED 0.487, read-out: LUCIFERASE INFECTION ASSAY - IC50): 6.23 µM
Cc1cc(C(=O)C(C)OC(=O)c2ccc(S(=O)(=O)N3CC(C)CC(C)C3)cc2)c(C)n1-c1ccc(Cl)cc1 (stereo not given) | 3.47 | IC50 (FFLUC_HILL_SLOPE 16.1, FFLUC_R_SQUARED 0.63, HEPG2TOX_HILL_SLOPE 1.41, HEPG2TOX_R_SQUARED 0.912, PBLUC_HILL_SLOPE 53.4, PBLUC_R_SQUARED 0.359, read-out: LUCIFERASE INFECTION ASSAY - IC50): 3.33 µM
COc1ccc(-c2cnc3sc(NCCCO)nn23)cc1OC | 7.9 | IC50 (PBLUC_HILL_SLOPE 3.23, PBLUC_R_SQUARED 0.708, read-out: LUCIFERASE INFECTION ASSAY - IC50): 4 µM
Cn1ccc2cc(-c3cnc4cnc(-c5ccc(C(=O)N6CCOCC6)cc5)cn34)ccc21 | > 7.54 | IC50 (HEPG2TOX_HILL_SLOPE 0.0832, HEPG2TOX_R_SQUARED 0.45, PBLUC_HILL_SLOPE 3.74, PBLUC_R_SQUARED 0.552, read-out: LUCIFERASE INFECTION ASSAY - IC50): 5.41 µM
CCOc1cc2ccccc2cc1C(=O)NOCc1ccccc1 | > 10 | IC50 (PBLUC_HILL_SLOPE 2.14, PBLUC_R_SQUARED 0.146, read-out: LUCIFERASE INFECTION ASSAY - IC50): > 10 µM
CNC(=O)Cc1ccc(NC(=O)CCSC)cc1 | > 10 | IC50 [1]: > 10 µM
Cc1ccc2c(Cl)cc(Cl)c(OC(=O)C3CC3)c2n1 | 6.06 | IC50 (HEPG2TOX_HILL_SLOPE 1.04, HEPG2TOX_R_SQUARED 0.959, PBLUC_HILL_SLOPE 1.84, PBLUC_R_SQUARED 0.861, read-out: LUCIFERASE INFECTION ASSAY - IC50): 1.84 µM
CCc1ccc(C(=O)Nc2nc3ccc(C)cn3c2C(=O)NC(C)CC)cc1 (stereo not given) | 3.2 | IC50 (HEPG2TOX_HILL_SLOPE 7.71, HEPG2TOX_R_SQUARED 0.568, PBLUC_HILL_SLOPE 11.7, PBLUC_R_SQUARED 0.544, read-out: LUCIFERASE INFECTION ASSAY - IC50): 2.65 µM
Cc1cc2ncc(C(=O)Nc3nc4c(s3)CN(Cc3ccccc3)CC4)c(C)n2n1 | > 10 | IC50 (PBLUC_HILL_SLOPE 15, PBLUC_R_SQUARED 0.627, read-out: LUCIFERASE INFECTION ASSAY - IC50): 9.24 µM
CN(C)CCNc1nc2sc3c(c2c(=O)n1Cc1ccco1)CCCCC3 | 8.43 | IC50 (PBLUC_HILL_SLOPE 3.33, PBLUC_R_SQUARED 0.165, read-out: LUCIFERASE INFECTION ASSAY - IC50): 4.36 µM
O=C(Nc1ncccc1OCc1ccc(Cl)c(Cl)c1)c1cc(Cl)cc(Cl)c1 | > 7.46 | IC50 (FFLUC_HILL_SLOPE 11.8, FFLUC_R_SQUARED 0.202, PBLUC_HILL_SLOPE 16.7, PBLUC_R_SQUARED 0.189, read-out: LUCIFERASE INFECTION ASSAY - IC50): > 7.46 µM
Cc1ncc(S(=O)(=O)Cc2ccco2)c(N)n1 | > 13 | IC50 [1]: > 13 µM
Cc1ccc(C2(c3ccccc3)NC(=O)N(CC(=O)c3ccc(Br)s3)C2=O)cc1C (stereo not given) | 3.91 | IC50 (FFLUC_HILL_SLOPE 2.42, FFLUC_R_SQUARED 0.19, PBLUC_HILL_SLOPE 12.8, PBLUC_R_SQUARED 0.482, read-out: LUCIFERASE INFECTION ASSAY - IC50): 3.29 µM
CC(C)(C)c1cc2ncc(S(=O)(=O)c3ccc(Cl)cc3)c(N)n2n1 | > 9.04 | IC50 (HEPG2TOX_HILL_SLOPE 5.77, HEPG2TOX_R_SQUARED 0.0253, read-out: LUCIFERASE INFECTION ASSAY - IC50): > 9.04 µM
Cc1ccc(O)c(C(=O)c2c[nH]c(-c3nc4ccccc4[nH]3)c2)c1 | > 10 | IC50 (HEPG2TOX_HILL_SLOPE 1.19, HEPG2TOX_R_SQUARED 0.817, PBLUC_HILL_SLOPE 1.99, PBLUC_R_SQUARED 0.294, read-out: LUCIFERASE INFECTION ASSAY - IC50): 3.74 µM
CCn1nnc2cc(C(=O)NC3CCc4nc(-c5ccccc5)ncc4C3)ccc21 (stereo not given) | > 10 | IC50 (HEPG2TOX_HILL_SLOPE 0.553, HEPG2TOX_R_SQUARED 0.534, PBLUC_HILL_SLOPE 1.69, PBLUC_R_SQUARED 0.311, read-out: LUCIFERASE INFECTION ASSAY - IC50): 4.68 µM
COc1cc(OC)nc(Nc2nc(C(N)Cc3ccccc3)cs2)n1 (stereo not given) | 7.54 | IC50 (PBLUC_HILL_SLOPE 4.21, PBLUC_R_SQUARED 0.584, read-out: LUCIFERASE INFECTION ASSAY - IC50): 4.47 µM
O=C(NCc1ccc(-c2cccs2)s1)c1ccc([N+](=O)[O-])s1 | > 9.42 | IC50 (PBLUC_HILL_SLOPE 15, PBLUC_R_SQUARED 0.438, read-out: LUCIFERASE INFECTION ASSAY - IC50): 8.73 µM
